Reference: patent US20240206465A1, “ACTIVE POLYMERIC FILMS AND POLYMERIC COMPOSITIONS” (Yissum Research Development Company of the Hebrew …, priority 2021, published 2024)
Square brackets hold non-standard residues; d marks the D form. Ends that are not written are not given here. Phe(4-F) = N[C@@H](Cc1ccc(F)cc1)C(=O)O; Dopa = N[C@@H](Cc1ccc(O)c(O)c1)C(=O)O

What was measured:
[1] = test system: canine coronavirus; details: peptide assemblies deposited on the glass surface; cited from earlier work
[2] = Thermogravimetric analysis (thermal stability); assay type: physicochemical; details: at 160° C.; contained the absorbed water; FIG. 4A
Protocol: Thermogravimetric analysis (TGA). TGA measurements were performed using the TGA Q5000 system (TA instruments, USA) at a heating rate of 10° C./min under nitrogen atmosphere, starting from room temperature to 800° C. The results were analyzed using Universal Analysis 200 version 4.5 A build 4.5.0.5 software.

[3] = test system: T4 phage; details: peptide assemblies deposited on the glass surface; cited from earlier work

Which results are given for [Dopa]-[Phe(4-F)]-[Phe(4-F)]-OMe?
antiviral activity against canine coronavirus [1]: acted against; weight loss of the peptide (TGA) [2]: < 3 wt %; antiviral activity against T4 phage [3]: acted against
